# Measurements taken from patent US11254635B2, “Emodin succinyl ester compound, preparation method therefor and application thereof” (JIANGSU KANION PHARMACEUTICAL CO., LTD., priority 2017, dated 2022).
# Read-outs that look alike come from different tables or passages of the source.
# Experiments:
# [1] = cited from earlier work
# [2] = system: skin wound of mice with type 1 diabetes; assay: Wound healing of mice with diabetes (STZ model, 5 mm skin punch wound); format: in vivo, Kunming mice; settings: 100 μg/mL oil, 10 μL dripped on the wound once a day, 14 days; vs diabetes model, solvent control and emodin groups
# Method: SPF-grade male Kunming mice (18-20 g) were adaptively fed with ordinary maintenance feed for 3-5 days, weighed and randomly divided into a blank control group (Control) and a diabetes model group. Mice in the diabetes model group were administrated with high-dose STZ (streptozotocin, 180 mg/kg) through intraperitoneal injection and fasting blood glucose was measured after one week. The mice successfully modeled were randomly divided into 5 groups, namely, the diabetes model group (Model), the solvent control group (Solvent), the positive drug (recombinant human epidermal growth factor) control group (EGF), the emodin group (DHS), and the emodin succinyl ethyl ester group (DHS-YSW).
# Animals in each group were anesthetized with sodium pentobarbital (1%) and shaved on the back. A 5 mm skin punch was used to establish a 5 mm wound model at the highest part of the back. The Control group and the Model group were not treated with any drugs. The solvent control group was dripped with 10 μL of sterile vegetable oil. The positive drug group was dripped with 10 μL of recombinant human epidermal factor solution (2000 IU/mL) each day. The other groups were dripped on the wound with 10 μL of a corresponding drug, once a day for 14 consecutive days. […]
# The experimental data were expressed as mean±standard error. […] The experimental results were all analyzed and graphed using GraphpadPrism6.0.
# [3] = system: oleic acid-induced hyperlipemia cells (HepG2 cell line); assay: Levels of TC and TG in oleic acid-induced hyperlipemia cells; format: cell-based; settings: for TC / TG: HepG2, oleic acid 200 μmol/L, 24 hours
# Method: Oleic acid is added to culture HepG2 cells to induce a hyperlipemia cell model, and then the cells are given a test drug, the effect of the test object on the lipid level of the cells is detected.
# When the degree of cell fusion reached about 80%, except for the normal group, cells in other groups were all added with oleic acid at a dose of 200 μmol/L, and then the cells were divided into five groups: the normal group, the oleic acid-induced hyperlipemia group, low-dose emodin succinyl ethyl ester group (5 μmol/L), the medium-dose emodin succinyl ethyl ester group (10 μmol/L) and the high dose emodin succinyl ethyl ester group (20 μmol/L). 24 hours later, the levels of TC and TG were measured.
# The cells were digested with 0.25% trypsin to prepare a cell suspension; the cell suspension was centrifuged at 1000 rpm for 10 minutes; the supernatant was discarded, and the cell pellet was collected, washed with PBS once or twice, and configured at 1000 rpm for 10 minutes; the supernatant was discarded, and the cell pellet was collected.
# 200 μl of 2% TritonX-100 was added for lysis for 30 minutes.
# First, the protein concentration of the sample was determined using the Beyotime kit. Then, 250 μl of working solution was added to a 96-well plate, 2.5 μl of distilled water was added to the blank wells, 2.5 μl of calibration solution was added to the calibration wells, 2.5 μl of sample was added to the sample wells, and they were all incubated for 10 minutes at 37° C. The OD values were measured by using a 510 nm microplate reader.
# 3.2.4 Calculation Formulas: Cholesterol content=(sample OD value−blank OD value)/(calibrated OD value−blank OD value)*5.17/protein concentration of the sample to be tested Triglyceride content=(sample OD value−blank OD value)/(calibrated OD value−blank OD value)*2.26/protein concentration of the sample to be tested.
# [4] = system: rats with mixed hyperlipidemia; assay: Levels of TC and TG in the liver of rats with mixed hyperlipidemia, Example 6; format: in vivo; settings: two weeks; for TC / TG: liver, high-fat diet; for effect on TC in liver / effect on TG in liver: low, medium, high doses of the ester, atorvastatin calcium 10 mg/kg, vs hyperlipidemia model group
# Method: (§1) Feeding rats with high-fat feed containing cholesterol, sucrose, lard, and sodium cholate can form a rat model of lipid metabolism disorders, and then the rats are administrated with drug, detect the effect of the test object on hyperlipidemia, and determine the effect of the test object on the lipid absorption, lipoprotein formation, lipid degradation or excretion in rats.
# (§2) Second random grouping: After the establishment of the rat hyperlipidemia model, the blood lipids of the rats were measured, and rats in the hyperlipidemia model group were randomly divided into five groups, 11 rats in the positive drug group, 10 rats in each of the other groups. The five groups were the hyperlipidemia model group, the low-dose test object group (emodin succinyl ethyl ester in a dose of 10 mg/kg·d^−1), the medium-dose test object group (emodin succinyl ethyl ester in a dose of 20 mg/kg·d^−1), the high-dose test object group (emodin succinyl ethyl ester in a dose of 40 mg/kg·d^−1), and the positive control drug group (Atorvastatin calcium group in a dose of 10 mg/kg·d^−1), respectively.
# (§3) The rats in the successfully grouped high-dose test object, medium-dose, and low-dose groups and positive control drug group (atorvastatin calcium group) were intragastrically administered daily. Rats in the blank control group and the hyperlipidemia model group were given corresponding doses of lysozyme.
# (§4) Feeding conditions remained unchanged. The rats were weighed once a week. Blood were collected at the tip of the tail two weeks after drug administration and livers were taken, to determine the levels of TC, TG, LDL-C, and HDL-C in serum of the rats and the levels of TC and TG in the liver, and then the effect of the test object on the TC, TG, LDL-C and HDL-C in serum of the rats and the TC and TG in liver were observed.
# (3) TC and TG in liver, measured after sampling
# [5] = system: rats with mixed hyperlipidemia; assay: Blood lipid levels in rats with mixed hyperlipidemia (high-fat feed), Example 6; format: in vivo; settings: two weeks; for effect on TG in serum: high dose of the ester; for effect on TG in serum / effect on LDL-C in serum / effect on TC in serum: atorvastatin calcium 10 mg/kg, vs hyperlipidemia group; for effect on LDL-C in serum / effect on TC in serum: low, medium, high doses of the ester; for LDL-C / TC / TG: serum, high-fat diet
# Method: as §1, §2
# In the experimental groups, rats in the blank control group were fed with maintenance feed and the remaining 5 groups were fed with high-fat diet. After 2 weeks, the levels of TG, TC, LDL-C and HDL-C in the serum of the rats were measured. The rats were weighed once a week.
# as §3, §4
# [6] = system: rats with mixed hyperlipidemia; assay: Comparison of emodin succinyl ethyl ester and emodin in lowering blood lipid levels in rats with mixed hyperlipidemia, Example 7; format: in vivo
# Method: Feeding rats with high-fat feed containing cholesterol, sucrose, lard and sodium cholate can form a rat model of lipid metabolism disorders and then the rats are administered with a drug, detect the effects of the test object on hyperlipidemia, and determine the effect of the test object on the lipid absorption, lipoprotein formation, lipid degradation or excretion in rats.
# Second random grouping: After the establishment of the rat hyperlipidemia model, the blood lipids of the rats were measured, and rats in the hyperlipidemia model group were randomly divided into four groups, 11 rats in the positive drug group, 10 rats in each of the other groups. The four groups were the hyperlipidemia model group, the low-dose test object (emodin succinyl ethyl ester in a dose of 20 mg/kg·d^−1) group, the emodin (20 mg/kg·d^−1) group, and the positive control drug (Atorvastatin calcium group in a dose of 10 mg/kg·d^−1) group, respectively.
# In the experimental groups, rats in the blank control group were fed with maintenance feed and the remaining 4 groups were fed with a high-fat diet. After 2 weeks, the levels of TG, TC, LDL-C and HDL-C in the serum of the rats were measured. The rats were weighed once a week.
# as §3, with “grouped” for “grouped high-dose”, “object (emodin succinyl ethyl ester) group, emodin group” for “object, medium-dose, and low-dose groups”
# Feeding conditions remained unchanged. The rats were weighed once a week. Blood were collected at the tip of the tail two weeks after drug administration. The effect of the test object on the TC, TG, LDL-C and HDL-C in serum of the rats were observed.
# [7] = low, medium and high doses (5, 10, 20 μmol/L), vs oleic acid group
# [8] = 10 mg/kg intragastrically once a day
# [9] = 20 mg/kg intragastrically once a day
# [10] = 40 mg/kg intragastrically once a day
# [11] = 20 mg/kg·d^−1, two weeks, vs hyperlipidemia group
# [12] = 20 mg/kg·d^−1 vs equivalent dose of emodin (20 mg/kg·d^−1), two weeks
compound,measurement,setting,value
"Cc1cc(O)c2c(c1)C(=O)c1cc(O)cc(O)c1C2=O [emodin, 1,3,8-trihydroxy-6-methylanthraquinone]",absolute bioavailability,[1]; female SD rats,5%
same,absolute bioavailability,[1]; male SD rats,7.5%
"CCOC(=O)CCC(=O)Oc1cc(O)c2c(c1)C(=O)c1cc(C)cc(O)c1C2=O [emodin succinyl ethyl ester, 1,8-dihydroxy-3-succinic acid monoethyl group-6-Methylanthraquinone]",wound healing speed,[2],significantly faster wound healing speed
same,TC,[3]; 5 μmol/L,0.730 ± 0.168 mmol/L
same,TG,[3]; 5 μmol/L,0.610 ± 0.308 mmol/L
same,TC,[3]; 10 μmol/L,0.506 ± 0.197^###& mmol/L
same,TG,[3]; 10 μmol/L,0.487 ± 0.347 mmol/L
same,TC,[3]; 20 μmol/L,0.537 ± 0.145^###&& mmol/L
same,TG,[3]; 20 μmol/L,0.414 ± 0.209 mmol/L
same,effect on level of TC of cells,[3]; [7],significantly reduce
same,effect on level of TG of cells,[3]; [7],significantly reduce
same,TC,[4]; [8],0.069 ± 0.010 mmol/L
same,TG,[4]; [8],0.105 ± 0.023 mmol/L
same,TC,[4]; [9],0.078 ± 0.010 mmol/L
same,TG,[4]; [9],0.127 ± 0.016 mmol/L
same,TC,[4]; [10],0.059 ± 0.005 mmol/L
same,TG,[4]; [10],0.079 ± 0.011 mmol/L
same,effect on TC in liver,[4],reduce
same,effect on TG in liver,[4],reduce
same,effect on TG in serum,[5],significantly reduce
same,effect on LDL-C in serum,[5],significantly reduce
same,effect on TC in serum,[5],significantly reduce
same,LDL-C,[5]; [8],0.17 ± 0.08 mmol/L
same,TC,[5]; [8],2.60 ± 0.74 mmol/L
same,TG,[5]; [8],3.98 ± 0.63 mmol/L
same,LDL-C,[5]; [9],0.15 ± 0.05 mmol/L
same,TC,[5]; [9],2.36 ± 0.78 mmol/L
same,TG,[5]; [9],4.12 ± 0.37 mmol/L
same,LDL-C,[5]; [10],0.18 ± 0.03 mmol/L
same,TC,[5]; [10],2.88 ± 0.34 mmol/L
same,TG,[5]; [10],3.23 ± 0.12 mmol/L
same,effect on LDL-C in serum,[6]; [11],significantly reduce
same,effect on TC in serum,[6]; [11],significantly reduce
same,lowering LDL-C in serum compared with emodin,[6]; [12],better effects
same,lowering TC in serum compared with emodin,[6]; [12],better effects
"CC(C)c1c(C(=O)Nc2ccccc2)c(-c2ccccc2)c(-c2ccc(F)cc2)n1CC[C@@H](O)C[C@@H](O)CC(=O)[O-].CC(C)c1c(C(=O)Nc2ccccc2)c(-c2ccccc2)c(-c2ccc(F)cc2)n1CC[C@@H](O)C[C@@H](O)CC(=O)[O-].[Ca+2] [Atorvastatin calcium, reference compound]",TC,[4]; [8],0.066 ± 0.004 mmol/L
same,TG,[4]; [8],0.090 ± 0.008 mmol/L
same,effect on TC in liver,[4],reduce
same,effect on TG in liver,[4],reduce
same,effect on TG in serum,[5],significantly reduce
same,effect on LDL-C in serum,[5],significantly reduce
same,effect on TC in serum,[5],significantly reduce
same,LDL-C,[5]; [8],0.13 ± 0.03 mmol/L
same,TC,[5]; [8],2.82 ± 1.02 mmol/L
same,TG,[5]; [8],2.94 ± 0.20 mmol/L
